# From patent US4639510A, “(1-S-acetamidomethyl cysteine, 7-alanine)calcitonin” (Armour Pharmaceutical Company, priority 1985, dated 1987)
# System: serum calcium concentration
# Assay: Biological assay of calcitonin analogs in vivo: reduction of serum calcium concentration vs synthetic salmon calcitonin standard
# Design: species or system Rats
# Protocol: Biological Assay Of Calcitonin Analogs In Vivo
# The biological potency of [S-Acm-Cys',Ala^7 ]salmon calcitonin was determined by comparing the reduction of serum calcium concentration which followed administration by graded doses of [S-Acm-Cys^1,Ala^7 ]SCT and synthetic salmon calcitonin standard. Rats were divided into four groups of seven animals, and each group was assigned at random to a dose of standard or test solution. Low and high doses were chosen from the linear portion of the dose-response curve. For the salmon calcitonin standard, the values were 0.7 and 2.1 mcg. peptide/100 g. body weight (BW). This dose approximates 3 and 9 MU/100 g. BW. Peptides were given by subcutaneous injection (0.2 ml/100 g. BW) and blood was withdrawn 1 hour later for serum calcium determination. Sera are processed and analyzed within two hours of collection. […]. Results were analyzed by a 2×2 parallel line assay [Gaddum, J. H., J. Pharm. Pharmacol., 6, 345 (1953)]. The standard salmon calcitonin used was independently determined to contain greater than 4,000 IU/mg. [S-Acm-Cys^1,Ala^7 ]SCT assayed at 6300 IU/mg, (95% 5800-6900).
Substance,"biological potency of the standard (independently determined content) (standard salmon calcitonin used in the assay, independently determined)","biological potency (rats, subcutaneous injection, serum calcium 1 hour later, 2×2 parallel line assay vs salmon calcitonin standard, 95% 5800-6900)"
Salmon calcitonin,"greater than 4,000 IU/mg",
"[S-Acm-Cys^1,Ala^7)]salmon calcitonin [[S-Acm-Cys^1,Ala^7]SCT]",,6300 IU/mg
